According to ChEMBL document CHEMBL5465560, “Selectivity Literature for EUbOPEN Chemogenomic Library” (2024):
One block for each molecule: values may come before it.

What was measured:
[1] = molecular target: T1, Ankyrin repeat and protein kinase domain-containing protein 1 (Homo sapiens) (UniProt Q8NFD2); settings: at 10 µM
T1 sequence (whole entry): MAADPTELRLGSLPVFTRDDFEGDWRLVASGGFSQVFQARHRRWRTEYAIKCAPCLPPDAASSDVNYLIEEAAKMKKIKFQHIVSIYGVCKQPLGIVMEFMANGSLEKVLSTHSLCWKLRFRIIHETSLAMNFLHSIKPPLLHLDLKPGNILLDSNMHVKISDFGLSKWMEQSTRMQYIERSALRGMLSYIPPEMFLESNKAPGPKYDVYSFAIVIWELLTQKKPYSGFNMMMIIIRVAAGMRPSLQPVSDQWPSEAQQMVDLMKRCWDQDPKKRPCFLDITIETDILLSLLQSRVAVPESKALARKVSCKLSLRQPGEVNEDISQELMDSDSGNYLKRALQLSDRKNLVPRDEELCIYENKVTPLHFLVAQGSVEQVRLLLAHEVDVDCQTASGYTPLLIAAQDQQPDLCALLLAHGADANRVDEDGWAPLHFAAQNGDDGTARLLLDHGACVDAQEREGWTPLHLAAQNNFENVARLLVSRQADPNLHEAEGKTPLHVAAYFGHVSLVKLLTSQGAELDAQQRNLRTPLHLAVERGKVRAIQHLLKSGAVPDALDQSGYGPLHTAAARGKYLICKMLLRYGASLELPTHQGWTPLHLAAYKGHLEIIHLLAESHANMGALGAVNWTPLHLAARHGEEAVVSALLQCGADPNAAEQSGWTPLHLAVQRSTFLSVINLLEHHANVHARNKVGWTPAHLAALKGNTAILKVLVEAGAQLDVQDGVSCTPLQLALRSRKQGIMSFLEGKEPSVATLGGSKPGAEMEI

[2] = molecular target: T2, Mitogen-activated protein kinase kinase kinase 2 (Homo sapiens) (UniProt Q9Y2U5); assay: Selectivity interaction (KinomeScan (DiscoverX)) EUB0001079a MAP3K2; settings: at 1 µM
T2 sequence (whole entry): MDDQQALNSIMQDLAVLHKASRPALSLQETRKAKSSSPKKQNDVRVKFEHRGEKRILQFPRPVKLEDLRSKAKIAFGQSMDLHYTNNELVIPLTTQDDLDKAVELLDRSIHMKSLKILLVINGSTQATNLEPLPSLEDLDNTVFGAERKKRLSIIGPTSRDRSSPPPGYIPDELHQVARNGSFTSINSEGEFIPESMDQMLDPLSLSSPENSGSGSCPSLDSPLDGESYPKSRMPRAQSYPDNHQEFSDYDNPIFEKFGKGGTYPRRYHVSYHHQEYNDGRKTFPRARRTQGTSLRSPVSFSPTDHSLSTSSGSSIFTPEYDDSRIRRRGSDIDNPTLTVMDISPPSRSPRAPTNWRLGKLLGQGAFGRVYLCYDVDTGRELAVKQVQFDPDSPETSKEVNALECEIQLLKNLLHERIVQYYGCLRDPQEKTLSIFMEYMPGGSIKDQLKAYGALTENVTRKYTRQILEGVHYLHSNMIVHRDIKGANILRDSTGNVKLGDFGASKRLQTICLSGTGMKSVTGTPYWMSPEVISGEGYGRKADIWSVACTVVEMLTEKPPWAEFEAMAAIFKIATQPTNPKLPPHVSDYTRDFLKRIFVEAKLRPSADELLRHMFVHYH

[3] = molecular target: T3, Myosin light chain kinase family member 4 (Homo sapiens) (UniProt Q86YV6); assay: Selectivity interaction (KinomeScan (DiscoverX)) EUB0001619a MYLK4; settings: at 1 µM
T3 sequence (whole entry): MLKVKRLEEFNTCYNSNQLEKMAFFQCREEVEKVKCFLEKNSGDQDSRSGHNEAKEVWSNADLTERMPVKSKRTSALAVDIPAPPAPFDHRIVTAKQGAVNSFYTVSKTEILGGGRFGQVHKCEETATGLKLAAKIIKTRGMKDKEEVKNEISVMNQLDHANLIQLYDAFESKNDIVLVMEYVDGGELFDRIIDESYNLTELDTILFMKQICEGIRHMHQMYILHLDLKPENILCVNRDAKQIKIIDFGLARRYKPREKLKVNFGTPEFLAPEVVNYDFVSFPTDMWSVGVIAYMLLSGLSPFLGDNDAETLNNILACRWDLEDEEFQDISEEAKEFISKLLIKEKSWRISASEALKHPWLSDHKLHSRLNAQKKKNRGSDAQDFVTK

[4] = molecular target: T4, Dual specificity mitogen-activated protein kinase kinase 3 (Homo sapiens) (UniProt P46734); assay: Selectivity interaction (Kinase panel (KiNativ target engagement assay in Jurkat cells)) EUB0001635a MAP2K3; type: cell-based; settings: at 1 µM
T4 sequence (whole entry): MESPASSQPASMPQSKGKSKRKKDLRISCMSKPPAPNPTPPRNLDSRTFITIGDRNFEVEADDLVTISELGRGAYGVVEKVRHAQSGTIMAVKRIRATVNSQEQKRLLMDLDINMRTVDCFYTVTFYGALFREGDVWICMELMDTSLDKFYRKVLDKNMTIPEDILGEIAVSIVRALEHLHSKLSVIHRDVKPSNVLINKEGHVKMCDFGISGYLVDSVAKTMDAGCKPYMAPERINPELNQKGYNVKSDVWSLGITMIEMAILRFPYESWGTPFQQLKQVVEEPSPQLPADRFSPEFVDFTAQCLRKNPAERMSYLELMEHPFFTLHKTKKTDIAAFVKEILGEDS

% of control [1]: 100%
SMILES: CCN(CC)CCCCNc1ncc2cc(-c3cc(OC)cc(OC)c3)c(NC(=O)NC(C)(C)C)nc2n1

SMILES: Nc1cnc(N2CCc3cc(S(=O)(=O)Nc4c(F)cc(Cl)cc4F)cc(N4CCCC4=O)c32)nc1 [TP-020n]
% of control [2]: 100%

SMILES: N#Cc1cccc(-c2c[nH]c3ncnc(N4CCOCC4)c23)c1
% of control [3]: 100%

SMILES: C=CC(=O)Nc1ccc(C(=O)Nc2[nH]nc3c2CN(C(=O)N[C@H](CN(C)C)c2ccccc2)C3(C)C)cc1
% of engagement ([4]; Selectivity number of off-targets 0.0, Selectivity number of targets 233.0, Source Knowledge https://www.sciencedirect.com/science/article/pii/S2451945619300674?via%3Dihub): 8.4% | % of engagement [4]: -7.7%
